From patent US6972296B2, “Carboxylic acid derivatives that inhibit the binding of integrins to their receptors” (Encysive Pharmaceuticals Inc., priority 1999, dated 2005)

Target: T1, α4β1 integrin (Homo sapiens, UniProt P05556+P13612)
T1 construct: endogenous in cells; host or cells: Ramos cells
Assay: Adhesion of calcein-labeled Ramos cells to CS1 (fibronectin) peptide conjugated ovalbumin
Assay type: cell-based
Conditions: Ramos cell adhesion to CS1 conjugated ovalbumin
Experimental: A procedure in which a 26-amino acid peptide containing the CS1 sequence of fibronectin with an N-terminal Cys ([…]) was coupled to maleimide activated ovalbumin was used to determine the efficacy of the compounds synthesized. Bovine serum albumin (BSA) and CS1 conjugated ovalbumin were coated onto 96-well polystyrene plates at 0.5 μg/ml in TBS (50 mM TRIS, pH 7.5; 150 mM NaCl) at 4° C. for 16 hours. The plates were washed three times with TBS and blocked with TBS containing 3% BSA at room temperature for 4 hours. Blocked plates were washed three times in binding buffer (TBS; 1 mM MgCl2; 1 mM CaCl2; 1 mM MnCl2) prior to assay. Ramos cells fluorescently labeled with calcein AM were resuspended in binding buffer (10^7 cells/ml) and diluted 1:2 with same buffer with or without compound. 100 μM of compound was added. The cells were added immediately to the wells (2.5×10^5 cells/well) and incubated for 30 minutes at 37° C. Following three washes with binding buffer, adherent cells were lysed and quantitated using a fluorometer. IC50 is defined as the dose required to give 50% inhibition, measured in μM for Tables 2 and 4. The lower the IC50 value and the greater the percentage of inhibition, the more efficient the compound is at prevention of cell adhesion.

[1] = Table 5, dose required to give 50% inhibition
[2] = Table 7, dose required to give 50% inhibition

T1 sequence (P13612 34-1032): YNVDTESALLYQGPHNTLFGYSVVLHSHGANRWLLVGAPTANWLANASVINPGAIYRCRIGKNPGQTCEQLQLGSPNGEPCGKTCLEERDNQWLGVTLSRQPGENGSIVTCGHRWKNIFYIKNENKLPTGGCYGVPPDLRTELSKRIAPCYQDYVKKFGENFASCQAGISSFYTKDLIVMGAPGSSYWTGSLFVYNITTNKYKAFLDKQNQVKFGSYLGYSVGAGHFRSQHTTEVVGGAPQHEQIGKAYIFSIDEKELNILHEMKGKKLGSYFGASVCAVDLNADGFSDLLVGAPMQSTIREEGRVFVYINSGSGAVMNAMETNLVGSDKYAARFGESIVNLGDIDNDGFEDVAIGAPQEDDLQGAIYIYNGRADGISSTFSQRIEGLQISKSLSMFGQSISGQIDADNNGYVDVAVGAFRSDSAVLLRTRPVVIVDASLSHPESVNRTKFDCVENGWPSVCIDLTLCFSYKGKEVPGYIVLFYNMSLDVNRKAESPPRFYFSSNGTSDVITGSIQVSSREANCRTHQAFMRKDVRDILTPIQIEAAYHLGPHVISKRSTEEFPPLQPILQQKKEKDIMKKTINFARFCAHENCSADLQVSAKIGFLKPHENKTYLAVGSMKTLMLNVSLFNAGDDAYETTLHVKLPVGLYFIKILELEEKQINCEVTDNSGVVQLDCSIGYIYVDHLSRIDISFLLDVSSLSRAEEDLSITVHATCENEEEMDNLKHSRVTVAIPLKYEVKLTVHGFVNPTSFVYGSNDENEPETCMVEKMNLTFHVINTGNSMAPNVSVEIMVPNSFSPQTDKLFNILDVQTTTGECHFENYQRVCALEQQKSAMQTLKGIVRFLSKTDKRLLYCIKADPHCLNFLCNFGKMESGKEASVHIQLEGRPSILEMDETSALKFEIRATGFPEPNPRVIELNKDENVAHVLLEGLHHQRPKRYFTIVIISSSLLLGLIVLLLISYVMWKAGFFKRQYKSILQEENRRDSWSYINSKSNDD
T1 sequence (P05556 21-798): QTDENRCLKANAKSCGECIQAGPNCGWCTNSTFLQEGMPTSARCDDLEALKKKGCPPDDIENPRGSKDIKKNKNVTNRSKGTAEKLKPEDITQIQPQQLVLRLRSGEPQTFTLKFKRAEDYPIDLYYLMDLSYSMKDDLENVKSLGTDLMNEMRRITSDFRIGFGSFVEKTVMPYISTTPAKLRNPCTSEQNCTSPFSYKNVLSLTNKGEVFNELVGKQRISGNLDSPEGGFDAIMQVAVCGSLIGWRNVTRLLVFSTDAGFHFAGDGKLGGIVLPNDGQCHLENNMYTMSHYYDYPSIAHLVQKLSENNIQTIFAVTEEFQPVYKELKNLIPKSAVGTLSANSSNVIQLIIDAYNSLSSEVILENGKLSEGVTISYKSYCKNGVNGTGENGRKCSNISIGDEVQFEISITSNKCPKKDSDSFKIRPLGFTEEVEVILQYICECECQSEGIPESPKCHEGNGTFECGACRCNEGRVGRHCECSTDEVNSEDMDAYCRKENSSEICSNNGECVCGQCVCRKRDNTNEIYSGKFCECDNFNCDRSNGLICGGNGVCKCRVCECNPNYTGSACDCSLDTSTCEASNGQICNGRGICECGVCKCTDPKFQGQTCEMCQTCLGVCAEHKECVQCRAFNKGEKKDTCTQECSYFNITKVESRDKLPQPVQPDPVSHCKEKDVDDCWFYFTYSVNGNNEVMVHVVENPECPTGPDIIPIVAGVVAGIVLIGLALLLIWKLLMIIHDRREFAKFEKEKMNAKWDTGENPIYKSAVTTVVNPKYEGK

O=C(O)C[C@H](NC(=O)Nc1cccn(Cc2ccccc2Cl)c1=O)c1ccccc1
IC50 (Table 4, 30 minutes at 37° C.): 100 nM

Cc1ccc([C@H](CC(=O)O)NC(=O)Nc2c(O)ccn(Cc3ccc(Cl)cc3)c2=O)cc1 [(3S)-3-[({[1-(4-chlorobenzyl)-4-hydroxy-2-oxo-1,2-dihydropyridin-3-yl]amino}carbonyl)amino]-3-(4-methylphenyl)propanoic acid]
IC50 [1]: 7 nM

O=C(O)C[C@H](NC(=O)Nc1c(O)ccn(Cc2ccccc2Cl)c1=O)c1ccc(F)cc1
IC50 (Table 3, 30 minutes at 37° C.): 30 nM

Cc1ccc([C@H](CC(=O)O)NC(=O)Nc2c(O)ccn(Cc3ccccc3C(F)(F)F)c2=O)cc1
IC50 [1]: 20 nM

Cc1ccc([C@H](CC(=O)O)NC(=O)Nc2cccn(Cc3ccc(C(C)(C)C)cc3)c2=O)cc1
IC50 (Table 4, 30 minutes at 37° C.): 6000 nM

COc1cccc(Cn2cccc(NC(=O)N[C@@H](CC(=O)O)c3ccc(C)cc3)c2=O)c1
IC50 (Table 4, 30 minutes at 37° C.): 200 nM

Cc1ccc([C@H](CC(=O)O)NC(=O)Nc2c(C)ccn(Cc3ccccc3)c2=O)cc1
IC50 (Table 3, 30 minutes at 37° C.): 30 nM

COc1cccc([C@H](CC(=O)O)NC(=O)Nc2c(O)ccn(Cc3ccccc3Cl)c2=O)c1 [(3S)-3-{[({1-[(2-chlorophenyl)methyl]-4-hydroxy-2-oxo-1,2-dihydro-3-pyridinyl}amino)carbonyl]amino}-3-[3-(methyloxy)phenyl]propanoic acid]
IC50 (Table 3, 30 minutes at 37° C.): 5 nM

O=C(O)C[C@H](NC(=O)Nc1c(O)c2c(n(Cc3ccccc3Cl)c1=O)CCC2)c1cccc(OC2CC2)c1
IC50 [2]: 4 nM

CCc1ccc([C@H](CC(=O)O)NC(=O)Nc2c(O)c3c(n(Cc4c(C)cccc4Cl)c2=O)CCC3)cc1
IC50 [2]: 15 nM

Cc1ccc([C@H](CC(=O)O)NC(=O)Nc2cnc(C)n(Cc3ccccc3Cl)c2=O)cc1
IC50 (Table 4, 30 minutes at 37° C.): 90 nM

O=C(O)CC(NC(=O)Nc1cccn(Cc2ccccc2Cl)c1=O)c1cccc(Cl)c1 (stereo not drawn)
IC50 (Table 4, 30 minutes at 37° C.): 1000 nM

CCN(CC)c1cccc([C@H](CC(=O)O)NC(=O)Nc2c(O)c3c(n(Cc4ccccc4Cl)c2=O)CCC3)c1 [(3S)-3-{[({1-[(2-chlorophenyl)methyl]-4-hydroxy-2-oxo-2,5,6,7-tetrahydro-1H-cyclopenta[b]pyridin-3-yl}amino)carbonyl]amino}-3-[3-(diethylamino)phenyl]propanoic acid]
IC50 [2]: 3 nM

CCc1c(O)c(NC(=O)N[C@@H](CC(=O)O)c2ccc(C)cc2)c(=O)n(Cc2ccccc2Cl)c1C
IC50 [1]: 25 nM

CCOc1cccc(Cl)c1Cn1c2c(c(O)c(NC(=O)N[C@@H](CC(=O)O)c3ccc4cc(OC)ccc4c3)c1=O)CCC2
IC50 [2]: 2 nM

O=C(O)C[C@@H](NC(=O)Nc1cccn(Cc2ccccc2Cl)c1=O)c1ccc2c(c1)OCO2
IC50 (Table 4, 30 minutes at 37° C.): 2000 nM

Cc1ccc([C@H](CC(=O)O)NC(=O)Nc2cccn(Cc3cc(F)ccc3Br)c2=O)cc1
IC50 (Table 4, 30 minutes at 37° C.): 500 nM

Cc1ccc([C@H](CC(=O)O)NC(=O)Nc2c(O)c3c(n(Cc4ccccc4Cl)c2=O)CCC3)cc1 [(3S)-3-[({[1-(2-chlorobenzyl)-4-hydroxy-2-oxo-2,5,6,7-tetrahydro-1H-cyclopenta[b]pyridin-3-yl]amino}carbonyl)amino]-3-(4-methylphenyl)propanoic acid]
IC50 [1]: 3 nM

COc1ccn(Cc2ccccc2Cl)c(=O)c1NC(=O)N[C@@H](CC(=O)O)c1ccc(C)cc1
IC50 (Table 3, 30 minutes at 37° C.): 20 nM

CCOc1cccc(Cl)c1Cn1c(C)c(C)c(O)c(NC(=O)N[C@@H](CC(=O)O)c2ccc(C)cc2)c1=O
IC50 [2]: 4 nM

Cc1cn(Cc2ccccc2Cl)c(=O)c(NC(=O)N[C@@H](CC(=O)O)c2cnc3ccccc3c2)c1O
IC50 [2]: 22 nM

Cc1ccc([C@H](CC(=O)O)NC(=O)Nc2c(O)c3c(n(Cc4ccc(Cl)cc4)c2=O)CCC3)cc1
IC50 (Table 6, 30 minutes at 37° C.): 50 nM

Cc1cccc(Cl)c1Cn1c2c(c(O)c(NC(=O)N[C@@H](CC(=O)O)c3ccc4c(ccn4C)c3)c1=O)CCC2 [(3S)-3-{[({1-[(2-chloro-6-methylphenyl)methyl]-4-hydroxy-2-oxo-2,5,6,7-tetrahydro-1H-cyclopenta[b]pyridin-3-yl}amino)carbonyl]amino}-3-(1-methyl-1H-indol-5-yl)propanoic acid]
IC50 [2]: 3 nM

COc1ccc([C@H](CC(=O)O)NC(=O)Nc2c(C)ccn(Cc3ccccc3Cl)c2=O)cc1 [(3S)-3-{[({1-[(2-chlorophenyl)methyl]-4-methyl-2-oxo-1,2-dihydro-3-pyridinyl}amino)carbonyl]amino}-3-[4-(methyloxy)phenyl]propanoic acid]
IC50 (Table 3, 30 minutes at 37° C.): 3 nM

O=C(O)CC(NC(=O)Nc1c(O)ccn(Cc2ccccc2Cl)c1=O)c1ccc2ccccc2c1 (stereo not drawn) [3-[({[1-(2-chlorobenzyl)-4-hydroxy-2-oxo-1,2-dihydropyridin-3-yl]amino}carbonyl)amino]-3-(2-naphthyl)propanoic acid]
IC50 [1]: 20 nM

Cc1ccc([C@H](CC(=O)O)NC(=O)Nc2c(C)nc(C)n(Cc3ccccc3Cl)c2=O)cc1
IC50 (Table 3, 30 minutes at 37° C.): 10 nM

CCOc1ccc([C@H](CC(=O)O)NC(=O)Nc2c(O)ccn(Cc3ccccc3Cl)c2=O)cc1OCC [(3S)-3-[({[1-(2-chlorobenzyl)-4-hydroxy-2-oxo-1,2-dihydropyridin-3-yl]amino}carbonyl)amino]-3-(3,4-diethoxyphenyl)propanoic acid]
IC50 [1]: 0.8 nM

Cc1ccc([C@H](CC(=O)O)NC(=O)Nc2cccn(Cc3cc(NS(C)(=O)=O)ccc3Br)c2=O)cc1
IC50 (Table 4, 30 minutes at 37° C.): 250 nM

CCC(CC)Oc1cccc([C@H](CC(=O)O)NC(=O)Nc2c(O)c3c(n(Cc4ccccc4Cl)c2=O)CCC3)c1
IC50 [2]: 20 nM

CCCc1cn(Cc2c(Cl)cccc2OC)c(=O)c(NC(=O)N[C@@H](CC(=O)O)c2ccc(C)c(OC)c2)c1O
IC50 (Table 6, 30 minutes at 37° C.): 15 nM

Cc1ccc([C@H](CC(=O)O)NC(=O)Nc2c(O)ccn(Cc3ccccn3)c2=O)cc1 [(3S)-3-[({[4-hydroxy-2-oxo-1-(pyridin-2-ylmethyl)-1,2-dihydropyridin-3-yl]amino}carbonyl)amino]-3-(4-methylphenyl)propanoic acid]
IC50 [1]: 45 nM

Cc1ccc([C@H](CC(=O)O)NC(=O)Nc2cccn(Cc3cc(F)ccc3F)c2=O)cc1
IC50 (Table 4, 30 minutes at 37° C.): 800 nM

Cc1cccc([C@H](CC(=O)O)NC(=O)Nc2c(O)c3c(n(Cc4c(C)cccc4Cl)c2=O)CCC3)c1
IC50 [2]: 4 nM

COc1cc([C@H](CC(=O)O)NC(=O)Nc2c(O)c(C)cn(Cc3c(Cl)cccc3OC)c2=O)ccc1C
IC50 (Table 6, 30 minutes at 37° C.): 6 nM

Cc1ccc([C@H](CC(=O)O)NC(=O)Nc2c(O)ccn(Cc3cccc(OC(F)(F)F)c3)c2=O)cc1
IC50 [1]: 45 nM

Cc1cccc([C@H](CC(=O)O)NC(=O)Nc2cccn(Cc3ccccc3Cl)c2=O)c1
IC50 (Table 4, 30 minutes at 37° C.): 200 nM

CCOc1cccc([C@H](CC(=O)O)NC(=O)Nc2c(O)c(C)cn(Cc3c(Cl)cccc3OC)c2=O)c1
IC50 (Table 6, 30 minutes at 37° C.): 3 nM

Cc1cccc(Cl)c1Cn1c2c(c(O)c(NC(=O)N[C@@H](CC(=O)O)c3ccc(C4CC4)cc3)c1=O)CCC2
IC50 [2]: 19 nM

O=C(O)C[C@@H](Cc1ccccc1Cl)NC(=O)Nc1c(O)ccn(Cc2ccccc2Cl)c1=O
IC50 (Table 6, 30 minutes at 37° C.): 700 nM

Cc1ccc([C@H](CC(=O)O)NC(=O)Nc2c(N3CCC3)ccn(Cc3ccccc3Cl)c2=O)cc1 [(3S)-3-{[({4-(1-azetanyl)-1-[(2-chlorophenyl)methyl]-2-oxo-1,2-dihydro-3-pyridinyl}amino)carbonyl]amino}-3-(4-methylphenyl)propanoic acid]
IC50 (Table 3, 30 minutes at 37° C.): 5 nM

Cc1ccccc1NC(=O)Nc1ccc(Cn2cccc(NC(=O)N[C@@H](CC(=O)O)c3ccc4c(c3)OCO4)c2=O)cc1
IC50 (Table 2, 30 minutes at 37° C.): 1 nM

CCCOc1cccc([C@H](CC(=O)O)NC(=O)Nc2c(O)c(C)cn(Cc3c(Cl)cccc3OCC)c2=O)c1
IC50 [2]: 3 nM

Cc1ccc([C@H](CC(=O)O)NC(=O)Nc2c(O)c(C)cn(Cc3cccc(Cl)c3)c2=O)cc1
IC50 (Table 6, 30 minutes at 37° C.): 20 nM

O=C(O)C[C@H](NC(=O)Nc1c(O)ccn(Cc2ccccc2Cl)c1=O)c1cccc(OC(F)(F)F)c1
IC50 [1]: 20 nM

Cc1ccc([C@H](CC(=O)O)NC(=O)Nc2c(O)ccn(Cc3cc(C(F)(F)F)ccc3Cl)c2=O)cc1 [(3S)-3-{[({1-[2-chloro-5-(trifluoromethyl)benzyl]-4-hydroxy-2-oxo-1,2-dihydropyridin-3-yl}amino)carbonyl]amino}-3-(4-methylphenyl)propanoic acid]
IC50 [1]: 10 nM

O=C(O)C[C@H](NC(=O)Nc1cccn(Cc2ccc(Cl)cc2)c1=O)c1ccc2c(c1)OCO2
IC50 (Table 4, 30 minutes at 37° C.): 3000 nM

O=C(O)CC(NC(=O)Nc1c(O)ccn(Cc2ccccc2Cl)c1=O)c1ccc(Cl)cc1 (stereo not drawn)
IC50 (Table 3, 30 minutes at 37° C.): 30 nM
IC50 (Table 4, 30 minutes at 37° C.): 30 nM

Cc1ccc([C@H](CC(=O)O)NC(=O)Nc2cccn(Cc3cccs3)c2=O)cc1
IC50 (Table 4, 30 minutes at 37° C.): 600 nM

Cc1ccc([C@H](CC(=O)O)NC(=O)Nc2cccn(Cc3c(N)cccc3Cl)c2=O)cc1
IC50 (Table 4, 30 minutes at 37° C.): 2000 nM

CCCCCc1cn(Cc2ccccc2Cl)c(=O)c(NC(=O)N[C@@H](CC(=O)O)c2ccc(C)cc2)c1O
IC50 [1]: 40 nM

Cc1cccc(Cl)c1Cn1c2c(c(O)c(NC(=O)N[C@@H](CC(=O)O)c3ccc(Cl)c(OC(C)C)c3)c1=O)CCC2
IC50 [2]: 23 nM

Cc1ccccc1[C@H](CC(=O)O)NC(=O)Nc1c(O)c(C)cn(Cc2ccccc2Cl)c1=O
IC50 [2]: 267 nM

O=C(O)C[C@H](NC(=O)Nc1cccn(Cc2ccccc2Cl)c1=O)c1c(O)cccc1O
IC50 (Table 4, 30 minutes at 37° C.): 3000 nM

O=C(O)C[C@H](NC(=O)Nc1c(O)ccn(Cc2ccccc2Cl)c1=O)c1ccc(F)c(C(F)(F)F)c1
IC50 [1]: 25 nM

Cc1cn(Cc2ccccc2Cl)c(=O)c(NC(=O)NC(CC(=O)O)c2ccco2)c1O (stereo not drawn)
IC50 [2]: 4 nM

Cc1ccc([C@H](CC(=O)O)NC(=O)Nc2cccn(Cc3c(O)cccc3Cl)c2=O)cc1
IC50 [1]: 100 nM
